According to US20250382305A1 (PTC THERAPEUTICS, INC., priority 2022, published 2025):

Tests used:
[1] = system: Total ATXN3 (tATXN3) protein; assay: Endogenous Total ATXN3 (tATXN3) Protein Assay (MSD immunoassay of cell lysates); format: cell-based; conditions: average IC50, total ATXN3 protein in cell lysate after 48 h with compound (Table 1)
How it was run: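 Cells in DMEM/10% FBS were plated at 10,000 per well onto 7-point, 3.16-fold compound dilutions in duplicate for 48 h at 37° C, then lysed. Total ATXN3 in lysates was measured by MSD sandwich immunoassay: mouse anti-ATXN3 capture, rabbit anti-ATXN3 detection, SULFO-TAG anti-rabbit. Average IC50 was reported in star bins.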

ATXN3 pre-mRNA = assay: RT-qPCR Assay to Quantify Exon 4 Skipping in ATXN3 pre-mRNA in Cells; format: cell-based; conditions: percent exon 4 skipping in ATXN3 pre-mRNA, RT-qPCR of cell lysates; average IC50
How it was run: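 Cells plated at 10,000/well onto a 7-point, 3.16-fold DMSO dilution series (duplicates), incubated 24 h at 37 °C, then lysed. Exon 4 skipping measured by one-step RT-qPCR (48 °C RT, 40 cycles); IC50 interpolated from dose-response fit of percent skipping.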

| Structure (SMILES) | IC50 [1] [nM] | IC50 (ATXN3 pre-mRNA) [nM] |
| --- | --- | --- |
| CC#CCNc1cc(Cl)nc2c(Cl)c([C@H]3CCCC[C@@H]3N)sc12 [Compound 308, 2-((1S,2S)-2-aminocyclohexyl)-N-(but-2-yn-1-yl)-3,5-dichlorothieno[3,2-b]pyridin-7-amine] | 30 to 300 | 30 to 300 |
| C#Cc1c([C@H]2CCCC[C@@H]2N)sc2c(NCc3ccccc3F)cc(Cl)nc12 [Compound 311, 2-((1S,2S)-2-aminocyclohexyl)-5-chloro-3-ethynyl-N-(2-fluorobenzyl)thieno[3,2-b]pyridin-7-amine] | 30 to 300 | 30 to 300 |
| CC#Cc1c([C@@H]2CCCC[C@H]2N)n(C(F)F)c2c(NCc3ccco3)nc(Cl)nc12 [Compound 318, 6-((1R,2R)-2-aminocyclohexyl)-2-chloro-5-(difluoromethyl)-N-(furan-2-ylmethyl)-7-(prop-1-yn-1-yl)-5H-pyrrolo[3,2-d]pyrimidin-4-amine] | 30 to 300 | 30 to 300 |
| Cc1c([C@H]2COCC[C@@H]2N)sc2c(NCc3ccccc3)cc(Cl)nc12 [Compound 321, 2-((3R,4S)-4-aminotetrahydro-2H-pyran-3-yl)-N-benzyl-5-chloro-3-methylthieno[3,2-b]pyridin-7-amine] | 30 to 300 | 30 to 300 |
| [2H]C1=C([2H])C([2H])([2H])[C@H](c2sc3c(NC([2H])([2H])c4ccccc4)cc(Cl)nc3c2C)[C@@H](N)C1([2H])[2H] [Compound 322, 2-((1S,6S)-6-aminocyclohex-3-en-1-yl-2,2,3,4,5,5-d6)-5-chloro-3-methyl-N-(phenylmethyl-d2)thieno[3,2-b]pyridin-7-amine] | 30 to 300 | 30 to 300 |
| N[C@@H]1CC=CC[C@H]1c1sc2c(NCc3ccco3)nc(Cl)nc2c1I [Compound 323, 6-((1R,6R)-6-aminocyclohex-3-en-1-yl)-2-chloro-N-(furan-2-ylmethyl)-7-iodothieno[3,2-d]pyrimidin-4-amine] | 30 to 300 | 30 to 300 |

Continued, values first:

| IC50 [1] [nM] | IC50 (ATXN3 pre-mRNA) [nM] | Structure (SMILES) |
| --- | --- | --- |
| 30 to 300 | 30 to 300 | N[C@H]1CC=CC[C@@H]1c1sc2c(NCc3cccs3)cc(Cl)nc2c1C#Cc1cccnc1 [Compound 307, 2-((1S,6S)-6-aminocyclohex-3-en-1-yl)-5-chloro-3-(pyridin-3-ylethynyl)-N-(thiophen-2-ylmethyl)thieno[3,2-b]pyridin-7-amine] |
| 30 to 300 | 30 to 300 | N[C@@H]1CC=CC[C@H]1c1sc2c(NCc3ccco3)cc(Cl)nc2c1Br [Compound 310, 2-((1R,6R)-6-aminocyclohex-3-en-1-yl)-3-bromo-5-chloro-N-(furan-2-ylmethyl)thieno[3,2-b]pyridin-7-amine] |
| 30 to 300 | 30 to 300 | Cc1c([C@H]2CC=C(C(=O)N(C)C)C[C@@H]2N)sc2c(NCc3cccs3)cc(Cl)nc12 [Compound 312, (4S,5S)-5-amino-4-(5-chloro-3-methyl-7-((thiophen-2-ylmethyl)amino)thieno[3,2-b]pyridin-2-yl)-N,N-dimethylcyclohex-1-ene-1-carboxamide] |
| 30 to 300 | 30 to 300 | Cc1c([C@H]2CC=C(C(=O)N3CCOCC3)C[C@@H]2N)sc2c(NCc3cccs3)cc(Cl)nc12 [Compound 313, ((4S,5S)-5-amino-4-(5-chloro-3-methyl-7-((thiophen-2-ylmethyl)amino)thieno[3,2-b]pyridin-2-yl)cyclohex-1-en-1-yl)(morpholino)methanone] |
| 30 to 300 | 30 to 300 | N[C@H]1CC=CC[C@@H]1c1sc2c(NCc3cccs3)cc(Cl)nc2c1C#CCCCCCO [Compound 320, 7-(2-((1S,6S)-6-aminocyclohex-3-en-1-yl)-5-chloro-7-((thiophen-2-ylmethyl)amino)thieno[3,2-b]pyridin-3-yl)hept-6-yn-1-ol] |
| 30 to 300 | 30 to 300 | N[C@H]1CC=CC[C@@H]1c1c(I)c2nc(Cl)cc(NCc3cccs3)c2n1C(F)F [Compound 325, 2-((1S,6S)-6-aminocyclohex-3-en-1-yl)-5-chloro-1-(difluoromethyl)-3-iodo-N-(thiophen-2-ylmethyl)-1H-pyrrolo[3,2-b]pyridin-7-amine] |
